Assay results taken from PMC9146228, “Bioactivity of Novel Pyrazole-Thiazolines Scaffolds against Trypanosoma cruzi: Computational Approaches and 3D Spheroid Model on Drug Discovery for Chagas Disease” (Pharmaceutics, 2022).

Legend:
[1] = Cytotoxicity in vitro assay (CellTiter-Glo); format: cell-based; conditions: African green monkey, Vero cells, mean ± SD
Procedure: (§1) Vero cells, obtained from the Rio de Janeiro Cell Bank (BCRJ code 0245), were dissociated with trypsin–EDTA solution (0.025%), and maintained in RPMI 1640 medium supplemented with 10% fetal bovine serum (FBS) at 37 °C in a humidified atmosphere of 5% CO2.
(§2) The compound toxicity was evaluated in Vero cell cultures. Briefly, Vero cells were seeded in 96-well white culture plates at a density of 1.5 × 10^4 cells/well for 24 h at 37 °C and 5% CO2. Thereafter, the cell monolayers were washed with phosphate-buffered saline (PBS) and 200 μL of fresh medium with a serial dilution of the pyrazole-thiazoline derivatives and Bz (1.9–500 µM) added. The cell viability was determined by luminescent assay using the CellTiter-Glo Kit (Promega Corporation, Madison, WI, USA) based on the ATP level. After 72 h of treatment, 20 μL of CellTiter-Glo solution was added per well, and cultures were kept for 2 min under agitation. The luminescent signal was read on the GloMax reader (Promega Corporation, Madison, WI, USA). The concentration of compounds that reduced 50% of cell viability (CC50) was calculated by linear regression. At least three independent assays were performed in duplicate.

Vero cells = experiment: Cytotoxicity in vitro assay (CellTiter-Glo); format: cell-based; conditions: 72 h, mean ± SD
Procedure: as §1, §2

[2] = tested on: T. cruzi Dm28c-Luc in Vero cell cultures; experiment: Reversibility (washout) assay; format: cell-based, Trypanosoma cruzi; conditions: 50 µM, 72 h treatment then 72 h drug-free
Procedure: Then, the cultures were washed with PBS, and maintained for another 72 h at 37 °C in a drug-free medium. Trypomastigotes released in the culture supernatant were detected by transferring the culture medium to 96-well plates, followed by luciferin (300 µg/mL) addition. Viable intracellular amastigotes were also accessed by adding luciferin solution to the cell monolayers.

[3] = tested on: T. cruzi (Dm28c-Luc)-infected Vero cell spheroids; experiment: 3D culture model: T. cruzi-infected Vero cell spheroids; format: cell-based, Trypanosoma cruzi; conditions: 72 h; for parasite load, arbitrary luminescence unit (ALU): untreated ALU = 166,678 ± 22,824
Procedure: Tridimensional Vero cell cultures were obtained as previously described. Briefly, the isolated cells (2 × 10^4/well) were cultured in 96-well U-bottom plates previously coated with 1% agarose. The spheroids were kept for 5 days at 37 °C in RPMI 1640 medium supplemented with 10% FBS for complete three-dimensional organization. Both 2D and 3D culture models were used for trypanocidal activity assays.
Vero cell spheroids were infected for 24 h with 2 × 10^5 trypomastigotes (Dm28c-Luc). […] Parasite load was assessed by the luminescence reaction after adding the luciferase substrate (luciferin 300 µg/mL). In addition, fluorescence microscopy images of untreated and treated T. cruzi-infected spheroids were acquired after fixing the cultures with 4% paraformaldehyde in PBS and 4′,6-diamidino-2-phenylindole (DAPI) staining, a DNA dye. The samples were observed under the Zeiss Axio Imager M2 fluorescence microscope (Carl Zeiss, Baden-Württemberg, Germany).

[4] = tested on: T. cruzi (Dm28c-Luc) intracellular amastigotes; experiment: Trypanocidal activity against intracellular amastigotes in infected Vero cell monolayers; format: cell-based, Trypanosoma cruzi; conditions: Trypanosoma cruzi; Dm28c-Luc in Vero cells, 72 h, mean ± SD; read-out: Trypanocidal Activity Intracellular Amastigotes IC90
Procedure: The susceptibility of intracellular amastigotes to pyrazole-thiazoline derivatives (series 1 and 2) was evaluated using 24 h T. cruzi-infected Vero cell monolayers (10:1 parasite/host cell ratio). Then, the cultures were washed with PBS to remove non-internalized parasites, and 200 μL of fresh medium with a serial dilution of pyrazole-thiazoline derivatives and Bz (0.41–100 µM) was added for 72 h at 37 °C.
(§3) After 72 h of treatment, luciferin (300 µg/mL) was added to the culture, and the viability of the parasites was assessed by reading the luminescent signal on the GloMax reader (Promega Corporation, Madison, WI, USA). Controls were also performed in non-toxic concentrations of DMSO (≤ 1%). The concentration that reduces the number of viable parasites by 50% (IC50) or 90% (IC90) was calculated by linear regression. The selectivity index (SI) was calculated as CC50/IC50 for each parasite form.

[5] = tested on: T. cruzi cysteine proteases (trypomastigote protein extract); experiment: Proteinase activity in solution (Z-FR-AMC); format: biochemical, Trypanosoma cruzi; conditions: up to 100 µM, Z-FR-AMC substrate
Procedure: Trypomastigote protein extracts (Dm28c-Luc; 10^8 parasites/mL) were obtained as previously described. The cysteine protease activity of the total protein extracts (5 µg) was measured using the reaction buffer (CH3COONa 10 mM, pH 5.0 containing 1 mM DTT), in the presence of the fluorogenic peptide substrate […], CBZ-L-Phenylalanyl-l-Arginine amide (Z -FR-AMC), and serial dilutions of pyrazole-thiazolines derivatives (100–6.25 µM). The samples were incubated for 45 min at room temperature. The variation in arbitrary fluorescence units (AFU), corresponding to the enzymatic cleavage of the fluorogenic substrate, was monitored in a SpectraMax M2e reader (Molecular Devices, Sunnyvale, CA, USA) for 1 h, with excitation values at 370 nm and emission values at 460 nm. Extracts incubated with 0.5% DMSO or with cysteine protease inhibitor E-64 were used as […]. […] The inhibitory activity was expressed as percentage inhibition.

[6] = tested on: T. cruzi (Dm28c-Luc) trypomastigotes; experiment: microbe, parasite or virus in culture; format: cell-based, Trypanosoma cruzi; conditions: Trypanosoma cruzi; Dm28c-Luc, 24 h, mean ± SD; read-out: Trypanocidal Activity Trypomastigotes IC90
Procedure: The screening assays were performed with T. cruzi clone Dm28c (TcI) genetically modified to express luciferase gene (Dm28c-Luc), kindly provided by Dr. Cristina Henriques. Trypomastigotes were isolated from T. cruzi-infected Vero cell monolayers (10:1 parasites/host cell ratio). On the 4th day post-infection (dpi), free trypomastigotes in the culture supernatant were harvested, and the number of parasites/mL was quantified in a Neubauer chamber.
The trypanocidal activity of the pyrazole-thiazoline derivatives was evaluated against trypomastigote and intracellular amastigote forms of T. cruzi (Dm28c-Luc). Tissue-derived trypomastigotes (1 × 10^6 parasites/well) were incubated with pyrazole-thiazoline derivatives and Bz in different concentrations (0.41–100 µM) for 24 h at 37 °C in a humidified atmosphere and 5% CO2. The parasite viability was determined by the addition of luciferin (300 µg/mL), followed by luminescence detection on the GloMax microplate reader (Promega Corporation, Madison, WI, USA).
as §3

For `Clc1ccc(-n2cc(C3=NCCS3)cn2)c(Cl)c1` [Compound 2c, 2-(1-(2,4-dichlorophenyl)-1H-pyrazol-4-yl)-4,5-dihydrothiazole], the CC50 at 72 h [1] was over 100 µM, the CC50 (Vero cells) was 107 ± 11.4 µM and the “reduction of release of trypomastigotes in the culture supernatant after washout” value [2] was 85%. The inhibition at 50 µM ([2]; Trypanosoma cruzi, Vero, read-out: inhibition of cell monolayer infection (intracellular amastigotes) after washout) was 78%, the “parasite load, arbitrary luminescence unit (ALU)” value ([3]; 25 µM) was 3329 ± 250 ALU and the “parasite load, arbitrary luminescence unit (ALU)” value ([3]; 50 µM) was 1648 ± 343 ALU. For the same compound, the “inhibition compared to untreated T. cruzi-infected microtissue” value ([3]; 25 and 50 µM) was “approximately 98%”, the IC90 [4] was 16.9 ± 2.5 µM and the “maximum inhibition of cysteine protease activity” value [5] was at most 10%. It also gave an IC90 [6] of 2.8 ± 0.6 µM.
